# Reference: publication PMC11251039, “Harnessing cholesterol uptake of malaria parasites for therapeutic applications” (EMBO Molecular Medicine, 2024)
# Where “and” joins values, the source holds several entries; their conditions need not be identical. Equal values may be shown once.
# What was measured:
# [1] = test system: P. falciparum stage III–IV gametocytes; assay: P. falciparum gametocyte viability assay (MitoTracker, flow cytometry), stage III-IV; type: cell-based, Plasmodium falciparum; conditions: 48 h; for Gametocyte stage III-IV viability, percentage of control: replicate values, source data Fig. 2C
# Procedure: (§1) Gametocyte assays commenced seven days (stage III–IV) or ten days (stage V) post-invasion. […]
# (§2) Plasmodium falciparum Gametocyte Viability Assays:
# (§3) Asexual P. falciparum parasites were induced to form gametocytes as described (21).
# (§4) Synchronized trophozoite-stage parasites at 2% parasitaemia were incubated overnight and […]
# (§5) haematocrit maintained at 4%. On the subsequent day (designated as day 0) of gametocytogenesis, the culture containing early ring-stage parasites was first purified by sorbitol synchronisation to remove asynchronous trophozoites, and passed through a magnetic field in a sterile MACS® column in a SuperMACSTM II magnet to remove remaining late-stage parasites or later-stage gametocytes (negative selection). The culture medium was supplemented with 50 mM N-acetyl-D-glucosamine to inhibit asexual parasite proliferation, and changed daily. Sorbitol treatment was performed on Day 1, 5, and 6 to further remove asexual parasites. Gametocytes were magnetically enriched (positive selection) in a sterile column with a SuperMACSTM II magnet and eluted in culture media with 50 mM N-acetyl-D-glucosamine. These gametocytes were incubated overnight at 37 °C under microaerophilic conditions, and purity was assessed by examination under a light microscope (400× […]
# (§6) Gametocyte viability was assessed as described by Ridgway et al. (21) with modifications.
# (§7) Compounds or solvent controls (DMSO) were serially diluted across 96-well plates in culture media supplemented with 50 mM N-acetyl-D-glucosamine. Culture media without compound was used as a negative control. […]
# (§8) control to determine background gametocyte fluorescence. Stage III-IV gametocytes (Day 7) or stage V (day 10) gametocytes were concentrated and added to the plate with 200 µL per well. The plate was incubated for 48 hours at 37 °C under humid microaerophilic conditions.
# (§9) Parasites were then stained with 500 nM MitoTrackerTM Deep Red FM and 5 μg/ml Hoechst […]
# (§10) cytometer as described above. […]
# (§11) excluded. Live (positive) and dead (negative) gametocytes were differentiated by […]
# (§12) percentage of each was calculated. […]
# [2] = test system: human foreskin fibroblasts (HFF); assay: Human foreskin fibroblast growth inhibition assay (SYBR Safe); type: cell-based; conditions: Homo sapiens, Fibroblast; 72 h, HFF; read-out: IC50, human fibroblast growth inhibition
# Procedure: HFF cell growth inhibition assays commenced by adding 5000 cells to each well of a 96-well plate. 10 µg/mL cycloheximide was used as a no-growth control. DNA replication (indicating growth) was measured at the specified time using SYBR Safe DNA Gel Stain (Invitrogen 33102) and a fluorescence microplate reader. […]
# Human Foreskin Fibroblast Growth Inhibition Assays:
# The HFF cell line was maintained under routine culture conditions in DMEM containing 3.7 g/L NaHCO3 supplemented with 10% v/v newborn calf serum (NCS), 50 units/mL penicillin, 50 μg/mL streptomycin, 10 μg/mL gentamicin, 0.25 μg/mL amphotericin B, and 0.2 mM L-glutamine at 37 °C in a humidified 5% CO2 incubator. […]
# HFF cells were detached from a flask using 0.25% Trypsin with 0.2 g/L EDTA (Sigma T4049) and washed with culture media. Cells were incubated with a serial dilution of each compound, or media/DMSO alone. Cycloheximide at 10 µg/mL was used as a positive control to determine background fluorescence. Approximately 5 000 cells were seeded in each well. Plates were incubated at 37 °C for 72 hours (until reaching confluency) and the media was removed. Plates were transferred to a -18 °C freezer. Plates were thawed and SYBR Safe DNA Gel Stain (final concentration 1/10,000) diluted in lysis buffer (as above) was added. Fluorescence was read at 490 nm excitation/ 520 nm emission on a FLUOstar Optima fluorescence plate reader. […]
# [3] = test system: P. falciparum stage V gametocytes; assay: P. falciparum gametocyte viability assay (MitoTracker, flow cytometry), stage V; type: cell-based, Plasmodium falciparum; conditions: 48 h
# Procedure: as §1, §2, §3, §4, §5, §6, §7, §8, §9, §10, §11, §12
# [4] = test system: Toxoplasma gondii tachyzoites (RH strain); assay: Toxoplasma growth inhibition assay (tdTomato fluorescence, in HFF cells); type: cell-based; conditions: Toxoplasma gondii, HFF, 72 h, read-out: IC50, T. gondii tachyzoite growth inhibition
# Procedure: Fluorescence was measured daily with a fluorescence microplate reader for one week, and the background fluorescence from the time 0 reading was subtracted from all other measurements. […]
# Toxoplasma Growth Inhibition Assays:
# Growth inhibition was investigated as described previously (26). Fluorescent Toxoplasma gondii parasites were inoculated into an optical bottom 96-well plate containing confluent human foreskin fibroblast (HFF) host cells at a density of 2,000 parasites/well, with a serial dilution of each compound, or culture media/DMSO (0.1% v/v) alone. Plates were measured daily with a FluoStar Optima fluorescence plate reader at 540 nm excitation and 590 nm emission for one week, and the background fluorescence from the time 0 reading was subtracted from all other measurements. […]
# [5] = test system: P. berghei liver stages; assay: Plasmodium berghei liver stage growth inhibition assay (luminescence, in Huh7 cells); conditions: for P. berghei liver stage growth, dose-response data points (Figure 3A): replicate data points
compound,measurement,setting,value
"COc1cc(NC(C)CCCN)c2ncccc2c1 (centres unmarked) [Primaquine, primaquine, reference compound]","Gametocyte stage III-IV viability, percentage of control","[1]; 0.781250000 uM, 0.78125 µM",95.42% and 99.73% and 94.08% and 101.8% and 105.1% and 104.7% and 100.9% (2×) and 98.19% and 96.58%
same,"Gametocyte stage III-IV viability, percentage of control","[1]; 1.562500000 uM, 1.5625 µM",95.15% (2×) and 94.61% and 99.24% and 100.4% and 98.94% and 101.3% and 96.75% and 94.78% and 98.39% and 95.38%
same,"Gametocyte stage III-IV viability, percentage of control","[1]; 3.125000000 uM, 3.125 µM",98.92% and 97.04% and 95.42% and 93.41% and 94.06% and 98.34% and 98.94% and 97.34% and 97.99% and 97.59%
same,"Gametocyte stage III-IV viability, percentage of control","[1]; 6.250000000 uM, 6.25 µM",98.92% and 103.8% and 95.15% and 101.3% and 99.57% and 96.95% and 89.77% and 92.16% and 101.4% and 98.59% and 97.59%
same,"Gametocyte stage III-IV viability, percentage of control","[1]; 12.500000000 uM, 12.5 µM",94.88% and 91.65% and 92.46% and 91.95% and 85.99% and 84% and 83.2% and 99.8% and 98.59% and 96.58%
same,"Gametocyte stage III-IV viability, percentage of control",[1]; 25.000000000 uM,79.16% and 90.84% and 90.57% and 89.5% and 87.42% and 88.71% and 66.47% and 62.28% and 62.48% and 96.99% and 92.97% and 89.75%
same,"Gametocyte stage III-IV viability, percentage of control",[1]; 50.000000000 uM,68.48% and 81.96% and 79.26% and 79.53% and 71.16% and 70.66% and 55.31% and 29.42% and 60.69% and 80.71% and 75.49% and 72.07%
same,"Gametocyte stage III-IV viability, percentage of control",[1]; 100.000000000 uM,13.88% and 70.94% and 81.83% and 86.47% and 12.9% and 10.48% and -20.11% and -20.13% and -19.64% and 38.56% and 39.79% and 36.92%
same,"Gametocyte stage III-IV viability, percentage of control",[1]; 200.000000000 uM,-26.52% and -4.004% and -1.274% and -24.53% and -24.5% and -24.31% and -27.02% and -23.13% and -23.83%
same,viability at 0.78125 µM,"[1]; Plasmodium falciparum, read-out: Gametocyte stage III-IV viability, percentage of control, 0.781250000 uM, 48 h, replicate values, source data Fig. 2C",101%
same,viability at 1.5625 µM,"[1]; Plasmodium falciparum, read-out: Gametocyte stage III-IV viability, percentage of control, 1.562500000 uM, 48 h, replicate values, source data Fig. 2C",98.8%
same,viability at 3.125 µM,"[1]; Plasmodium falciparum, read-out: Gametocyte stage III-IV viability, percentage of control, 3.125000000 uM, 48 h, replicate values, source data Fig. 2C",93.3%
same,viability at 6.25 µM,"[1]; Plasmodium falciparum, read-out: Gametocyte stage III-IV viability, percentage of control, 6.250000000 uM, 48 h, replicate values, source data Fig. 2C",94.2%
same,viability at 12.5 µM,"[1]; Plasmodium falciparum, read-out: Gametocyte stage III-IV viability, percentage of control, 12.500000000 uM, 48 h, replicate values, source data Fig. 2C",89%
same,IC50,"[1]; Plasmodium falciparum, read-out: IC50, P. falciparum gametocyte stage III-IV inhibition",60 µM
same,IC50,[2],41.8 µM
same,"Gametocyte stage V viability, percentage of control","[3]; 1.562500000 uM, replicate values, source data Fig. 2D, 1.5625 µM",97.48% and 95.25% and 88.04%
same,IC50,"[3]; Plasmodium falciparum, read-out: IC50, P. falciparum gametocyte stage V inhibition",14.8 µM
same,IC50,[4],9.7 µM
same,"P. berghei liver stage growth, dose-response data points (Figure 3A)",[5]; 0.015241580 uM,93.67 and 95.48 and 110.9 and 122 and 82.26 and 95.7 and 96.97 and 92.94 and 110.1
same,"P. berghei liver stage growth, dose-response data points (Figure 3A)",[5]; 0.045724740 uM,108.1 and 96.38 and 105.4 and 91.89 and 98.42 and 97.49 and 70.73 and 69.42 and 92.75
same,"P. berghei liver stage growth, dose-response data points (Figure 3A)",[5]; 0.137174210 uM,105.4 and 121.7 and 113.6 and 95.08 and 83.35 and 110.5 and 75.51 and 85.25 and 113.8
same,Figure 3E dose-response value (replicates),[5]; 0.212890630 uM,110.2 and 105.1 and 104.6 and 108.5 and 84.79 and 105.5 and 104.2 and 95.71 and 86.14 and 93.88 and 93.04
same,"P. berghei liver stage growth, dose-response data points (Figure 3A)",[5]; 0.411522630 uM,105.4 and 115.4 (2×) and 82.34 and 95.47 and 107.6 and 82.44 and 82.72 and 115.2
same,Figure 3E dose-response value (replicates),[5]; 0.425781250 uM,102.3 and 92.15 and 106 and 104.8 and 98.19 and 93.53 and 98.84 and 93.27 and 90.28
same,Figure 3E dose-response value (replicates),[5]; 0.851562500 uM,96.31 and 95.61 and 102.1 and 104.8 and 94.91 and 106 and 91.69 and 92.32 and 88 and 100 and 90.58 and 89.08
same,"P. berghei liver stage growth, dose-response data points (Figure 3A)",[5]; 1.234567900 uM,95.48 and 107.2 and 78.84 and 85.44 and 95.31 and 57.42 and 69.42 and 85.07
same,Figure 3E dose-response value (replicates),[5]; 1.703125000 uM,88.27 and 98.56 and 102.4 and 105.9 and 83.84 and 86.74 and 92.09 and 88.62
same,Figure 3E dose-response value (replicates),[5]; 3.406250000 uM,97.54 and 95.04 and 93.86 and 98.31 and 97.98 and 92.53 and 88.24 and 88.2 and 80.51 and 79.64 and 66.71 and 72.77
same,"P. berghei liver stage growth, dose-response data points (Figure 3A)",[5]; 3.703703700 uM,52.94 and 55.66 and 62.9 and 27.87 and 29.81 and 24.61 and 21.71 and 31.37 and 31.18
same,Figure 3E dose-response value (replicates),[5]; 6.812500000 uM,52.26 and 84.6 and 91.44 and 91.35 and 88.74 and 72.33 and 82.87 and 73.41 and 70.7 and 48.65 and 46.53 and 51.73
same,"P. berghei liver stage growth, dose-response data points (Figure 3A)",[5]; 11.111111100 uM,2.262 and -2.262 (2×) and 1.062 and 1.606 and 2.072 and 3.062 and 2.968 and 4.186
same,Figure 3E dose-response value (replicates),[5]; 13.625000000 uM,24.3 and 46.65 and 52.62 and 55.32 and 16.73 and 22.67 and 37.29 and 44.07 and 37.02 and 20.99 and 23.94 and 27.39
same,Figure 3E dose-response value (replicates),[5]; 27.250000000 uM,0.8156 and 1.015 and 0.9272 and 0.814 and 1.004 and 2.12 and 0.3528 and 0.5411 and 2.525 and 0.8793 and 0.07968 and 0.8298
same,"P. berghei liver stage growth, dose-response data points (Figure 3A)",[5]; 33.333333300 uM,-1.357 (3×) and 0.4403 and 0.2849 and 0.3626 and 1.093 and 1.749 and 0.9997
same,"P. berghei liver stage growth, dose-response data points (Figure 3A)",[5]; 100.000000000 uM,-3.167 and -0.4525 and 0.4525 and -0.0259 and 0.0518 (2×) and -0.03124 (2×) and 0.5311
same,Figure 3E dose-response value (replicates),[5]; 109.000000000 uM,3.02 and 0.4007 and 0.2308 and 0.4951 and 3.634 and 2.894 and 0.4747 and 1.134 and 1.25 and 3.638 and 3.687 and 3.498
same,IC50,"[5]; Plasmodium berghei, Huh-7, 48 h, read-out: IC50, P. berghei liver stage growth inhibition",2.9 µM
